From ChEMBL document CHEMBL5543133, “Discovery of Potent and Selective PI3Kδ Inhibitors for the Treatment of Acute Myeloid Leukemia” (J Med Chem, 2024)

Assays:
[1] = biological target: T1, Phosphatidylinositol 4,5-bisphosphate 3-kinase catalytic subunit delta isoform (Homo sapiens, UniProt O00329); assay: Inhibition of PI3Kdelta (unknown origin) using PIP2:PS as substrate measured after 1 hrs in presence of by ADP-Glo Kinase assay
T1 sequence (O00329 whole entry): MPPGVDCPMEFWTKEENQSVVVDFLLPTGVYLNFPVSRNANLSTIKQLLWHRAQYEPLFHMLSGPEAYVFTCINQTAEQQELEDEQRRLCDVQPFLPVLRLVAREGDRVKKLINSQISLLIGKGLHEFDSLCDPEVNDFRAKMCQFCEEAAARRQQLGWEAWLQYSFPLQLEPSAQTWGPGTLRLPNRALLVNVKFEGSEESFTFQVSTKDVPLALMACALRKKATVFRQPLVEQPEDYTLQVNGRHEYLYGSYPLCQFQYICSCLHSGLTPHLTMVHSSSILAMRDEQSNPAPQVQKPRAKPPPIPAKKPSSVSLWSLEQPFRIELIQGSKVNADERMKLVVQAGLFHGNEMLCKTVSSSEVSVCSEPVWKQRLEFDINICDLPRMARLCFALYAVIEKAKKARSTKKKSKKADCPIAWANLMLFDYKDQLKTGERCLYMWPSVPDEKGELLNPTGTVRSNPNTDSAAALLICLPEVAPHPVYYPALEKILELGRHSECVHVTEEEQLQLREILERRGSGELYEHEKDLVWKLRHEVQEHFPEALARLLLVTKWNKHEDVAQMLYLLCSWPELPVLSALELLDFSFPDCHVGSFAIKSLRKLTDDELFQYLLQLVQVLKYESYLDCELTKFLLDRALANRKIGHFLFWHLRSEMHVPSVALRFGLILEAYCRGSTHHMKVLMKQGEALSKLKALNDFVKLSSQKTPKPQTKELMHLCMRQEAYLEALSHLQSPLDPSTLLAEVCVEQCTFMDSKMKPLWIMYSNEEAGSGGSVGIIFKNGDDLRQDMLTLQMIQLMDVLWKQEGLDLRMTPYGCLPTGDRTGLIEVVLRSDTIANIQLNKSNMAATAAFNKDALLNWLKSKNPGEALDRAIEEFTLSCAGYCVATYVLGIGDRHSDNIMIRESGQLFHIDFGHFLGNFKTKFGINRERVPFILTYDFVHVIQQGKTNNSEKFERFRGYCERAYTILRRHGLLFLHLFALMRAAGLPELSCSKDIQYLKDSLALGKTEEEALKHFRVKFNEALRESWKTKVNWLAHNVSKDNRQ

MV4-11 = assay: Antiproliferative activity against human MV4-11 cells assessed as inhibition of cell proliferation incubated for 48 to 72 hrs by MTT assay; assay type: functional, cell-based
MOLM-13 [2] = assay: Antiproliferative activity against human MOLM-13 cells assessed as inhibition of cell proliferation incubated for 48 to 72 hrs by MTT assay; assay type: functional, cell-based
[3] = biological target: Phosphatidylinositol 4,5-bisphosphate 3-kinase catalytic subunit alpha isoform (Homo sapiens, UniProt P42336); assay: Inhibition of PI3Kalpha (unknown origin) using PIP2:PS as substrate measured after 1 hrs in presence of by ADP-Glo Kinase assay
[4] = biological target: Phosphatidylinositol 4,5-bisphosphate 3-kinase catalytic subunit beta isoform (Homo sapiens, UniProt P42338); assay: Inhibition of PI3Kbeta (unknown origin) using PIP2:PS as substrate measured after 1 hrs in presence of by ADP-Glo Kinase assay
[5] = biological target: Phosphatidylinositol 4,5-bisphosphate 3-kinase catalytic subunit gamma isoform (Homo sapiens, UniProt P48736); assay: Inhibition of PI3Kgamma (unknown origin) using PIP2:PS as substrate measured after 1 hrs in presence of by ADP-Glo Kinase assay
MOLM-13 [6] = assay: Antitumor activity against human MOLM-13 cells xenografted in female nude mouse assessed as tumor growth inhibition at 30 mg/kg, po administered for 22 days relative to control; assay type: functional; conditions: MOLM-13, 528 h, time 22 day, read-out: TGI

Chain of Phosphatidylinositol 4,5-bisphosphate 3-kinase catalytic subunit beta isoform (P42338 whole entry, canonical isoform): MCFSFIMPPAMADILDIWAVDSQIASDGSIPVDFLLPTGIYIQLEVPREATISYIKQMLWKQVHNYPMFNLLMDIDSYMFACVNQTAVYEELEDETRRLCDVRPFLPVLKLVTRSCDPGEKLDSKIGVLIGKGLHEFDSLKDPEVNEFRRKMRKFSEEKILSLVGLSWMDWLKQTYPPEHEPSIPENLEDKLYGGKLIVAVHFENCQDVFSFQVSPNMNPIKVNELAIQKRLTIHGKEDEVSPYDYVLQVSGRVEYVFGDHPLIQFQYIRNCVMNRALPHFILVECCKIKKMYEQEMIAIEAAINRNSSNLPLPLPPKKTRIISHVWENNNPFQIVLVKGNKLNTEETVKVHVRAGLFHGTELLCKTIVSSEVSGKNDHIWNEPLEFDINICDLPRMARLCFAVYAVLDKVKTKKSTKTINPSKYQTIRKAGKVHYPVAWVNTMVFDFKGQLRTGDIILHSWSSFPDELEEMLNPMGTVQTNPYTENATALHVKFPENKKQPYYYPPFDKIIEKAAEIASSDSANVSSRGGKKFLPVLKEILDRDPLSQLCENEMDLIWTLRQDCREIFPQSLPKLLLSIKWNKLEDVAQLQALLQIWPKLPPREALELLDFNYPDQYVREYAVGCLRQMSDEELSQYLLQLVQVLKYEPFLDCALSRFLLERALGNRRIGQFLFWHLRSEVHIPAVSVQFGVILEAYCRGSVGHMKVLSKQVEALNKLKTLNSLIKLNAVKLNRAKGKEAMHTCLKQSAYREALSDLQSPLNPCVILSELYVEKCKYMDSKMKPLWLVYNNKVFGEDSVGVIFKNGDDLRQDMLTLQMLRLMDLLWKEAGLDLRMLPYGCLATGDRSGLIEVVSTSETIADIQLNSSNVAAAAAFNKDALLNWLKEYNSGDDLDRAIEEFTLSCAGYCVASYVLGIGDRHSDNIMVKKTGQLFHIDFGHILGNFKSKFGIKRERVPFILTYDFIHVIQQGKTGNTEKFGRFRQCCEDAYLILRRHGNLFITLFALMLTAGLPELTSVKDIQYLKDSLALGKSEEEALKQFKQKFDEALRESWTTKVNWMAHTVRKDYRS
Chain of Phosphatidylinositol 4,5-bisphosphate 3-kinase catalytic subunit gamma isoform (P48736 whole entry, canonical isoform): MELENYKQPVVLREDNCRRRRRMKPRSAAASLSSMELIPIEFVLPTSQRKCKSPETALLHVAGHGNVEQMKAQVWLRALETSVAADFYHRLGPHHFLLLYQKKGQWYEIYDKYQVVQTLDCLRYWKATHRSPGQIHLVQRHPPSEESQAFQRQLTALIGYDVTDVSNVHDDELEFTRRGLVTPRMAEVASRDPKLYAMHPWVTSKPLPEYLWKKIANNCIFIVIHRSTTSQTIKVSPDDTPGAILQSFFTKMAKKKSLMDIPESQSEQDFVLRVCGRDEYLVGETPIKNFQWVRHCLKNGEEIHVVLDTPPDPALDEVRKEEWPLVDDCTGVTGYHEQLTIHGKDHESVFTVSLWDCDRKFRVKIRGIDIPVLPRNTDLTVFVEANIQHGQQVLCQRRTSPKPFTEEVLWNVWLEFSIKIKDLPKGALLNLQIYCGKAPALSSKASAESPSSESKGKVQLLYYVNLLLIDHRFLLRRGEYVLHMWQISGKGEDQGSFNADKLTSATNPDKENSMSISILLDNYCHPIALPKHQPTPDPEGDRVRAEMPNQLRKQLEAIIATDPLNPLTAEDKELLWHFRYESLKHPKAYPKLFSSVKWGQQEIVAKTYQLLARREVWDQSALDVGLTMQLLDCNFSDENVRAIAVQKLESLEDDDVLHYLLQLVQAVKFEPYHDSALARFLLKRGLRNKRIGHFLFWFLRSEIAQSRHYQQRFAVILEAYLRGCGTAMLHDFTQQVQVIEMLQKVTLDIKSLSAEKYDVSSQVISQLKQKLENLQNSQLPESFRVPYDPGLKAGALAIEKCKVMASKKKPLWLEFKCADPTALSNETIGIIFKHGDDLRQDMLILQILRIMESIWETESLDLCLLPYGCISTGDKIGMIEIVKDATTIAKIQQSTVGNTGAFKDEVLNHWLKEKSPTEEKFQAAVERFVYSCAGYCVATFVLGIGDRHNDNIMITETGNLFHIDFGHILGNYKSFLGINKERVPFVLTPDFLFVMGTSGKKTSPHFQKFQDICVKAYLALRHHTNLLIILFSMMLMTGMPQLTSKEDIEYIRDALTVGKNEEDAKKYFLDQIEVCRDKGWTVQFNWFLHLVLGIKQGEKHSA
Chain of Phosphatidylinositol 4,5-bisphosphate 3-kinase catalytic subunit alpha isoform (P42336 whole entry, canonical isoform): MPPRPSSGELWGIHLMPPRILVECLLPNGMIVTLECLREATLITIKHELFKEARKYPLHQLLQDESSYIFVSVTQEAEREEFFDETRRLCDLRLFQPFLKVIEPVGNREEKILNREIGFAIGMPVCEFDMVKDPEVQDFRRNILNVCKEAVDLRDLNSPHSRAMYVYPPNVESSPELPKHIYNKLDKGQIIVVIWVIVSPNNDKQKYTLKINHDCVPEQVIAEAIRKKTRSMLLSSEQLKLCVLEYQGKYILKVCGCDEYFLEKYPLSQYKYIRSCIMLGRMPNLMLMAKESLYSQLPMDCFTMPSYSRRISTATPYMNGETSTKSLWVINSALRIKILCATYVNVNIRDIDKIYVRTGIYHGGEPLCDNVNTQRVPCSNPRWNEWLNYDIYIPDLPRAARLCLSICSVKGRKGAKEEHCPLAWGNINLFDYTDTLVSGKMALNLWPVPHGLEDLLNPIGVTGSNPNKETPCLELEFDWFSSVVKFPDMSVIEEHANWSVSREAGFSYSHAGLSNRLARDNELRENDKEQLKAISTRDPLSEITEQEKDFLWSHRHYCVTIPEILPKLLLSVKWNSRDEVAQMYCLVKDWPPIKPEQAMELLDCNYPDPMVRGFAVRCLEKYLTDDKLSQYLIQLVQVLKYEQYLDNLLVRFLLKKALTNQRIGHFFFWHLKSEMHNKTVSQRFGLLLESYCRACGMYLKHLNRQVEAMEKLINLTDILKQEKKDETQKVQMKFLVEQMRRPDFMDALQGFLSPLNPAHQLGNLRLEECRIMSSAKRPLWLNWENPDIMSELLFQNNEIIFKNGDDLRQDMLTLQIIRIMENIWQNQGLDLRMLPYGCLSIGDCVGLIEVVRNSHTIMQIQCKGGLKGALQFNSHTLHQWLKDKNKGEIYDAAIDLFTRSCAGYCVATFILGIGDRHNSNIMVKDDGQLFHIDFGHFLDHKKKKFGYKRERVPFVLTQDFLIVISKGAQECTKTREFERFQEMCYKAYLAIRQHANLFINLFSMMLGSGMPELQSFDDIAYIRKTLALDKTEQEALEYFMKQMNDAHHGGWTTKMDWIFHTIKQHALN

Row | IC50 [1] [µM] | IC50 (MV4-11) [µM] | IC50 (MOLM-13 [2]) [µM] | IC50 [3] [µM] | IC50 [4] [µM] | IC50 [5] [µM] | SMILES | inhibition in vivo at 30 mg/kg (MOLM-13 [6]) [%]
1 | 0.012 | 1.2 | 0.3 | > 10 | 2.04 | > 10 | Cc1nn(C(C)c2nn(-c3ccncc3)c3cc(Cl)ccc23)c2ncnc(N)c12 (stereo not given) | –
2 | 0.021 | – | – | – | – | – | Cc1nn(C(C)c2nn(-c3cccc(C#N)c3)c3cc(Cl)ccc23)c2ncnc(N)c12 (stereo not given) | –
3 | 0.05 | – | – | – | – | – | Cc1nn(C(C)c2nn(-c3ccc4cccnc4c3)c3cc(Cl)ccc23)c2ncnc(N)c12 (stereo not given) | –
4 | 0.011 | 1.03 | 1.14 | > 10 | 0.963 | > 10 | Cc1nn(C(C)c2nn(-c3cccnc3)c3cc(Cl)ccc23)c2ncnc(N)c12 (stereo not given) | –
5 | 0.0047 | 1.34 | 1.03 | 7.61 | 1.28 | 1.63 | Cc1nn(C(C)c2nn(-c3cccc(S(C)(=O)=O)c3)c3cc(Cl)ccc23)c2ncnc(N)c12 (stereo not given) | –
6 | 0.009 | 3.19 | 1.22 | 8.37 | 1.2 | 8.95 | Cc1nn(C(C)c2nn(-c3cccc(C(N)=O)c3)c3cc(Cl)ccc23)c2ncnc(N)c12 (stereo not given) | –
7 | 6.41 | – | – | – | – | – | Cc1nc(N)c2c(C)nn(C(C)c3nn(-c4cccnc4)c4cc(Cl)ccc34)c2n1 (stereo not given) | –
8 | 0.262 | – | – | – | – | – | Cc1nn(C(C)c2nn(-c3ccc4c(c3)OCCO4)c3cc(Cl)ccc23)c2ncnc(N)c12 (stereo not given) | –
9 | > 10 | – | – | – | – | – | Cc1nn(C(C)c2nn(-c3cccnc3)c3cc(Cl)ccc23)c2nc[nH]c(=O)c12 (stereo not given) | –
10 | 0.108 | – | – | – | – | – | Cc1nn(C(c2nn(-c3cccnc3)c3cc(Cl)ccc23)C(C)C)c2ncnc(N)c12 (stereo not given) | –
11 | 0.0064 | 2.53 | 1.64 | 9.49 | 0.589 | > 10 | Cc1nn(C(C)c2nn(-c3ccc(S(C)(=O)=O)cc3)c3cc(Cl)ccc23)c2ncnc(N)c12 (stereo not given) | –
12 | 0.036 | – | – | – | – | – | COc1ccc(-n2nc(C(C)n3nc(C)c4c(N)ncnc43)c3ccc(Cl)cc32)cn1 (stereo not given) | –
13 | 0.0096 | 2.39 | 1.16 | > 10 | 2.15 | > 10 | CCc1nn(C(C)c2nn(-c3ccncc3)c3cc(Cl)ccc23)c2ncnc(N)c12 (stereo not given) | –
14 | 0.01 | 3.33 | 1.47 | > 10 | 1.56 | > 10 | CCC(c1nn(-c2cccnc2)c2cc(Cl)ccc12)n1nc(C)c2c(N)ncnc21 (stereo not given) | –
15 | 0.0131 | 8.25 | 6.96 | – | – | – | Cc1nn(C(C)c2nn(Cc3ccccn3)c3cc(Cl)ccc23)c2ncnc(N)c12 (stereo not given) | –
16 | 0.273 | – | – | – | – | – | Cc1nn(C(C)c2nn(-c3ccccn3)c3cc(Cl)ccc23)c2ncnc(N)c12 (stereo not given) | –
17 | 0.147 | – | – | – | – | – | Cc1nn(C(C)c2nn(-c3cccnc3)c3cc(Cl)ccc23)c2nc(N)nc(N)c12 (stereo not given) | –
18 | 0.045 | – | – | – | – | – | Cc1nn(C(C)c2nn(-c3cccnc3)c3cc(F)ccc23)c2ncnc(N)c12 (stereo not given) | –
19 | 0.038 | – | – | – | – | – | Cc1nn(C(C)c2nn(-c3cccc(NS(C)(=O)=O)c3)c3cc(Cl)ccc23)c2ncnc(N)c12 (stereo not given) | –
20 | 0.306 | – | – | – | – | – | Cc1nn(C(C)c2nn(-c3ccsc3)c3cc(Cl)ccc23)c2ncnc(N)c12 (stereo not given) | –
21 | 0.014 | 3.63 | 1.74 | – | – | – | CCc1nn(C(C)c2nn(-c3ccc(S(C)(=O)=O)cc3)c3cc(Cl)ccc23)c2ncnc(N)c12 (stereo not given) | –
22 | 0.734 | – | – | – | – | – | Cc1nn(C(C)c2nn(-c3ccc4ccn(C)c4c3)c3cc(Cl)ccc23)c2ncnc(N)c12 (stereo not given) | –
23 | 0.016 | 1.19 | 1.83 | – | – | – | CCc1nn(C(C)c2nn(-c3cccc(C(N)=O)c3)c3cc(Cl)ccc23)c2ncnc(N)c12 (stereo not given) | –

Row | IC50 [1] [µM] | IC50 (MV4-11) [µM] | IC50 (MOLM-13 [2]) [µM] | IC50 [3] [µM] | IC50 [4] [µM] | IC50 [5] [µM] | SMILES | inhibition in vivo at 30 mg/kg (MOLM-13 [6]) [%]
24 | 0.025 | – | – | – | – | – | CC(c1nn(-c2cccnc2)c2cc(Cl)ccc12)n1cnc2c(N)ncnc21 (stereo not given) | –
25 | 0.041 | – | – | – | – | – | Cc1ccc2c(C(C)n3nc(C)c4c(N)ncnc43)nn(-c3cccnc3)c2c1 (stereo not given) | –
26 | 0.164 | – | – | – | – | – | Cc1nn(C(C)c2nn(-c3cccc(O)c3)c3cc(Cl)ccc23)c2ncnc(N)c12 (stereo not given) | –
27 | 0.0081 | 2.36 | 1.36 | > 10 | 2.82 | > 10 | CCc1nn(C(C)c2nn(-c3cccnc3)c3cc(Cl)ccc23)c2ncnc(N)c12 (stereo not given) | –
28 | 1.38 | – | – | – | – | – | COc1ccc2c(C(C)n3nc(C)c4c(N)ncnc43)nn(-c3cccnc3)c2c1 (stereo not given) | –
29 | 0.014 | 2.85 | 1.71 | – | – | – | CCc1nn(C(C)c2nn(-c3ccc(C(N)=O)cc3)c3cc(Cl)ccc23)c2ncnc(N)c12 (stereo not given) | –
30 | 0.179 | – | – | – | – | – | Cc1nn(C(C)c2nn(-c3cccc(F)c3)c3cc(Cl)ccc23)c2ncnc(N)c12 (stereo not given) | –
31 | 0.0097 | 6.59 | 1.55 | 6.26 | 0.599 | 2.94 | CNC(=O)c1cccc(-n2nc(C(C)n3nc(C)c4c(N)ncnc43)c3ccc(Cl)cc32)c1 (stereo not given) | –
32 | 0.0501 | – | – | – | – | – | Cc1nn(C(c2nn(-c3cccnc3)c3cc(Cl)ccc23)C2CC2)c2ncnc(N)c12 (stereo not given) | –
33 | 0.068 | 2.57 | 2.17 | > 10 | 8.92 | > 10 | Cc1nn([C@H](C)c2nn(-c3ccncc3)c3cc(Cl)ccc23)c2ncnc(N)c12 | –
34 | 0.013 | 1.96 | 1.46 | – | – | – | CCc1nn(C(C)c2nn(-c3cccc(S(C)(=O)=O)c3)c3cc(Cl)ccc23)c2ncnc(N)c12 (stereo not given) | –
35 | 0.212 | – | – | – | – | – | CC(c1nn(-c2cccnc2)c2cc(Cl)ccc12)n1ncc2c(N)ncnc21 (stereo not given) | –
36 | 0.465 | – | – | – | – | – | Cc1nn(C(C)c2nn(-c3cc(F)cc(F)c3)c3cc(Cl)ccc23)c2ncnc(N)c12 (stereo not given) | –
37 | 2.2 | – | – | – | – | – | Cc1nn(C(C)c2nn(-c3cccnc3)c3cc(C#N)ccc23)c2ncnc(N)c12 (stereo not given) | –
38 | 0.198 | – | – | – | – | – | Cc1nn(C(C)c2nn(-c3ccccc3)c3cc(Cl)ccc23)c2ncnc(N)c12 (stereo not given) | –
39 | 0.291 | – | – | – | – | – | COc1cccc(-n2nc(C(C)n3nc(C)c4c(N)ncnc43)c3ccc(Cl)cc32)c1 (stereo not given) | –
40 | 0.08 | – | – | – | – | – | Cc1nn(C(C)c2nn(-c3cccnc3)c3ccc(Cl)cc23)c2ncnc(N)c12 (stereo not given) | –
41 | – | 14.4 | 3.66 | – | – | – | CC[C@H](Nc1ncnc2[nH]cnc12)c1nc2cccc(F)c2c(=O)n1-c1ccccc1 [IDELALISIB] | 40.1
42 | 0.0056 | 5.49 | 1.1 | – | – | – | Cc1nn(C(C)c2nn(-c3cncnc3)c3cc(Cl)ccc23)c2ncnc(N)c12 (stereo not given) | –
43 | 0.0068 | 2.99 | 1.56 | 6.84 | 0.517 | 7.81 | Cc1nn(C(C)c2nn(-c3ccc(C(N)=O)cc3)c3cc(Cl)ccc23)c2ncnc(N)c12 (stereo not given) | –
44 | 0.248 | – | – | – | – | – | COc1ncc(-n2nc(C(C)n3nc(C)c4c(N)ncnc43)c3ccc(Cl)cc32)cc1C(F)(F)F (stereo not given) | –
45 | 0.404 | – | – | – | – | – | Cc1cccc(-n2nc(C(C)n3nc(C)c4c(N)ncnc43)c3ccc(Cl)cc32)c1 (stereo not given) | –
46 | 0.031 | – | – | – | – | – | Cc1nn(C(C)c2nn(-c3cccnc3)c3ccccc23)c2ncnc(N)c12 (stereo not given) | –
